Laboratory results taken from patent US20260234188A1, “CHEMOKINE-BINDING PEPTIDES” (Oxford University Innovation Limited, priority 2022, published 2026).
“Also recorded” adds a separate entry of the source.

Tested on: panel of up to 42 human chemokines
Assay: Phage-display next generation sequencing screen of overlapping hexadecapeptide libraries, chemokines displayed on streptavidin beads
Format: binding
Text: FIG. 1. Exemplar results from phage display screens. Phage-display libraries were constructed and analysed as described in (McLaughlin, 2013) (Tonikian, 2007). […] FIG. 1A, CC chemokines against evasin A library. FIG. 1B, CXC chemokines against the evasin B library. FIG. 1C, CXC and CX3C chemokines against the viral chemokine binding protein library. FIG. 1D, CXC chemokines against the chemokine library. […] Identified hexadecapeptides were mapped to the position in the originating protein (x-axis) and to fold enrichment (log 2 E, left y-axis). Regions of interest (ROI) were defined where the cumulative residue log 2 E, (clog 2 E:r, right y-axis) exceeds the 95% upper confidence interval of the median clog 2 E:r for the entire protein (indicated as a horizontal dotted line in each panel). Proteins are referred to by their UniProt ID.
Hexadecapeptides were identified using a phage-display next generation sequencing approach (McLaughlin, 2013). Libraries containing a total of 55662 overlapping peptides (from the tick chemokine binding proteins shown in Tables 3A and 3B, the viral chemokine binding proteins shown in Table 3C, the human chemokines shown in Table 3 E, and the human/viral chemokine receptors and other chemokine-binding proteins shown in Table 3D) were first constructed, and then screened against a panel of up to 42 human chemokines, as shown in Table 3F.

[1] = log2E greater than 5, chemokines named by first part of UniProt entry name, C5a (control) binders excluded
[2] = log2E greater than 5, chemokines named by first part of UniProt Entry Name
[3] = log2E greater than 5, chemokines named by first part of UniProt Entry Name, peptides binding complement C5a (control) excluded

For CR15930 (MVIWVLAFFLSSPSLV), the “Chemokines Bound” value [1] was “CCL28, CXL10,; also recorded: CXL14”.

For CR2553 (CGIITSVLAWVTAILA), the “Chemokines Bound” value [2] was “CCL11, CCL2, and CCL20, CCL22, and CCL28, CCL8, and X3CL1, CXL10, and SDF1, CXL14, and IL8”.

With CR1475 (ANVTFTGLIAAFSWFM) the “Chemokines Bound” value [1] was “CCL2, CCL22,; also recorded: CXL11, CXL13”.

With CR5077 (FGFFIPLMFMIFSYTF) the “Chemokines Bound” value [2] was “CCL18, X3CL1,; also recorded: CXL14”.

VP1485 (DLAGLDSLTSPVYVMA) was tested, and the “Chemokines Bound” value [3] was “CCL20, X3CL1, and SDF1”.

In the case of CR17781 (PSWIISFSVWMAAILL), the “Chemokines Bound” value [1] was “CCL17, CCL18, and CCL19, CCL2, and CCL20, CCL22, and CCL25, CCL28, and X3CL1, CXL10, and CXL11, SDF1, and CXL13, CXL14, and IL8”.

With CR1923 (ATFKILISIVWGVMPV) the “Chemokines Bound” value [1] was “CCL18, CCL28,; also recorded: X3CL1, CXL10,; also recorded: CXL11, SDF1,; also recorded: CXL13, IL8”.

For CR24107 (TYIILLLTWFAGLIFS), the “Chemokines Bound” value [2] was “CCL22, CCL25,; also recorded: CXL11”.

For CR26093 (VVCILVWLLAFCVSLP), the “Chemokines Bound” value [2] was “CCL20, X3CL1,; also recorded: CXL10, IL8”.

With CR5262 (FILALVGNTLALWLFI) the “Chemokines Bound” value [2] was “CCL22, CCL28,; also recorded: SDF1, IL8”.

For CR24347 (VAYSLIFLLGVIGNVL), the “Chemokines Bound” value [2] was “CCL18, CCL19,; also recorded: CCL20, CXL11,; also recorded: CXL14”.

For CR27050 (YDLFIGIKIVYCFLWG), the “Chemokines Bound” value [2] was “CCL1, CCL17,; also recorded: CCL19, CCL20,; also recorded: CCL22, X3CL1,; also recorded: CXL10, CXL11,; also recorded: SDF1, CXL13,; also recorded: CXL14, IL8”.

With CR5021 (FFSGMLLLLSISIDRY) the “Chemokines Bound” value [2] was “CCL18, CCL19,; also recorded: CCL20, CCL28”.

For CR5776 (FMIFCYTFIVKTLVQA), the “Chemokines Bound” value [3] was “CCL1, CCL17,; also recorded: CCL19, CCL20,; also recorded: SDF1, CXL13”.

In the case of CR13324 (LLMLGLELLFGFFIPL), the “Chemokines Bound” value [1] was “CCL1, CCL11,; also recorded: CCL17, CCL18,; also recorded: CCL2, CCL20,; also recorded: CCL22, CCL28,; also recorded: CXL10, CXL11,; also recorded: SDF1, CXL14”.

With CR24989 (VITFCLYVGQFLAYVR) the “Chemokines Bound” value [2] was “CCL17, CCL18,; also recorded: CCL19, CCL20,; also recorded: CCL25, X3CL1,; also recorded: CXL10, SDF1,; also recorded: CXL14”.

For CR10825 (KLIFAIVVAYFLSWGP), the “Chemokines Bound” value [1] was “CCL17, CCL28,; also recorded: CXL14”.

With CR6836 (GFFIPLMFMIFSYTFI) the “Chemokines Bound” value [3] was “CCL22, CXL14, and IL8”.

CR5768 (FMFVLSVLGNLTVVCV) was tested, and the “Chemokines Bound” value [3] was “CCL19, CCL22,; also recorded: CCL25”.

For CR23943 (TVITFALYVGQFLAYV), the “Chemokines Bound” value [2] was “CCL2, CCL20,; also recorded: CCL22, X3CL1,; also recorded: CXL10, CXL11,; also recorded: SDF1, CXL13”.

With CR5027 (FFSQLVYFIYHAVSSY) the “Chemokines Bound” value [2] was “CCL17, CCL18, and CCL20, CXL10, and CXL11, SDF1, and IL8”.

With CR11556 (LAKLEAFFLNLSIYWS) the “Chemokines Bound” value [1] was “CCL18, CCL2, and CCL25, CCL28, and CCL8, X3CL1, and CXL10, CXL11, and SDF1, CXL13, and IL8”.

CR7642 (GSMLLSVLFTLYVSTL) was tested, and the “Chemokines Bound” value [3] was “CCL25, CXL10,; also recorded: CXL11, CXL13”.

In the case of CR23915 (TVFLSIFYSVIFAIGL), the “Chemokines Bound” value [2] was “CCL17, CCL18,; also recorded: CCL19, CCL2,; also recorded: CCL20, CCL22,; also recorded: CCL25, CCL28,; also recorded: CCL8, X3CL1,; also recorded: CXL10, CXL11,; also recorded: SDF1, CXL13,; also recorded: CXL14, IL8”.

For “CR9515: chemokine binding peptide of Table 5A used in FIG. 5 combinations (ILYQFELFGFTLIFFK)”, the “Chemokines Bound” value [3] was “CCL18, CCL19,; also recorded: CXL10, CXL14”.

With CR2158 (AVKIVFSFIWGVLPTM) the “Chemokines Bound” value [1] was “CCL18, CCL20,; also recorded: SDF1, CXL14”.

CR6212 (FSTFSGMLVYILLLPV) was tested, and the “Chemokines Bound” value [3] was “CXL11, CXL13, and IL8”.

CR26310 (VWLMSIVGTFLNVLVI) was tested, and the “Chemokines Bound” value [2] was “CCL17, CCL18,; also recorded: CCL2, CXL10,; also recorded: CXL11, SDF1,; also recorded: CXL14, IL8”.

With CR9192 (IISLVVWGLSVIISSS) the “Chemokines Bound” value [3] was “CCL18, CXL10, and CXL13, CXL14, and IL8”.

With CR498 (AFLWGIFPTVIFSYFY) the “Chemokines Bound” value [2] was “CCL17, CCL18,; also recorded: CCL19, CCL20,; also recorded: CCL25, CXL13”.

In the case of CR12432 (LGIILFSYVEILRTLF), the “Chemokines Bound” value [1] was “CCL17, CCL18, and CXL10, CXL11, and IL8”.

CR3135 (DFLCKLLNMIFSISLY) was tested, and the “Chemokines Bound” value [2] was “CCL17, CCL22,; also recorded: CCL25, CCL28,; also recorded: CXL11, IL8”.

In the case of CR21236 (SMILESLFAALVTLIT), the “Chemokines Bound” value [1] was “CCL22, CXL10,; also recorded: CXL11, SDF1,; also recorded: CXL13, IL8”.

In the case of EDDYTAYAPLTCYFTN [HD842], the “Chemokines Bound” value [3] was “CCL1, CCL17, and CCL4, CCL5, and CCL8”.

CR6041 (FSAILLYIDDFSAYFS) was tested, and the “Chemokines Bound” value [3] was “CCL17, CCL18,; also recorded: X3CL1, IL8”.
